Article PMC10742508, “The Structure and Nucleotide-Binding Characteristics of Regulated Cystathionine β-Synthase Domain-Containing Pyrophosphatase without One Catalytic Domain” (International Journal of Molecular Sciences, 2023)

Legend:
Type in all cases: binding
ΔdhPPase [1] = molecular target: T1, ΔdhPPase (Desulfitobacterium hafniense, UniProt B8FP42); assay: ThermoFluor, SYPRO Orange; conditions: 200 µM AMP, 2 mM MgCl2, 0.1 mM CoCl2, 150 mM KCl, pH 7.2; peak II = regulatory part
T1 construct: gene Dhaf_1515
T1 sequence (B8FP42 1-423): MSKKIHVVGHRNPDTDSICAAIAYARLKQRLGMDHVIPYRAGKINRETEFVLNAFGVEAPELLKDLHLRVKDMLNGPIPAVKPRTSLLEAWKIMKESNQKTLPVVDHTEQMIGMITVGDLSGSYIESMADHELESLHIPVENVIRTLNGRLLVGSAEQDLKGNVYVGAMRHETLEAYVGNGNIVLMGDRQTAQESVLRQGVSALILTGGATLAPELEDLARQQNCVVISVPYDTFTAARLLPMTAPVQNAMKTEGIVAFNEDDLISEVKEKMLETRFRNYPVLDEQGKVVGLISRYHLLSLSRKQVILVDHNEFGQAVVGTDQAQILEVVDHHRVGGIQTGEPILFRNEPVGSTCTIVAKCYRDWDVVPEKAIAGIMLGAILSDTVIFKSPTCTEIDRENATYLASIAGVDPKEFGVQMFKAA
From the text: ThermoFluor, SYPRO Orange on ΔdhPPase

[2] = molecular target: T2, CDC (separate regulatory part of dhPPase) (Desulfitobacterium hafniense, UniProt B8FP42); assay: ThermoFluor, SYPRO Orange; conditions: 2 mM MgCl2, 0.1 mM CoCl2, 150 mM KCl, pH 7.2
T2 construct: gene Dhaf_1515; regulatory insert only (CBS1-DRTGG-CBS2)
From the text: ThermoFluor, SYPRO Orange on CDC (separate regulatory part of dhPPase)

[3] = molecular target: T3, dhPPase (full-size CBS-PPase) (Desulfitobacterium hafniense, UniProt B8FP42); assay: ThermoFluor, SYPRO Orange; conditions: 200 µM AMP, 2 mM MgCl2, 0.1 mM CoCl2, 150 mM KCl, pH 7.2; peak II = regulatory part
T3 construct: gene Dhaf_1515
From the text: ThermoFluor, SYPRO Orange on dhPPase (full-size CBS-PPase)

ΔdhPPase [4] = molecular target: T4, ΔdhPPase (Desulfitobacterium hafniense, UniProt B8FP42, DEL425-544); assay: isothermal titration calorimetry, single-site model; conditions: read-out: KN
T4 construct: gene Dhaf_1515
T4 sequence (B8FP42 1-423): T1 sequence (B8FP42 1-423)
From the text: isothermal titration calorimetry, single-site model on ΔdhPPase

[5] = molecular target: T3, dhPPase (full-size CBS-PPase); assay: as above; conditions: read-out: KN
From the text: isothermal titration calorimetry, single-site model on dhPPase (full-size CBS-PPase)

T3 sequence (B8FP42 entry or part of it): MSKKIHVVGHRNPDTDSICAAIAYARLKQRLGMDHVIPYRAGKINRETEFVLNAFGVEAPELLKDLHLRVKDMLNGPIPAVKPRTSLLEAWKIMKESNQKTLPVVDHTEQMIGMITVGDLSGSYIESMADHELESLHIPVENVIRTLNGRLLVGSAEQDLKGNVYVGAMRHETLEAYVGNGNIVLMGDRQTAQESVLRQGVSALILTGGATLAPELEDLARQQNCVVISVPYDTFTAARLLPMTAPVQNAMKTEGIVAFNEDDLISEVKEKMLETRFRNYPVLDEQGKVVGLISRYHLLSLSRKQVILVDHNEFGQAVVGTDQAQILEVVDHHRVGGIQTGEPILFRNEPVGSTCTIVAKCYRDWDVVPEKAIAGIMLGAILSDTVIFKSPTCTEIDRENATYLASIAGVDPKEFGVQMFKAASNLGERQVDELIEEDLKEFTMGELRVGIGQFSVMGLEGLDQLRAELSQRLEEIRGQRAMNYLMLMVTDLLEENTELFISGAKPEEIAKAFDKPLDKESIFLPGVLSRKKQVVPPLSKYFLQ

Row | Structure (SMILES) | Tm, °C / ΔdhPPase (ΔdhPPase [1]) | Tm, °C / CDC ([2]; 200 µM AMP) | Tm, °C / dhPPase [3] | Tm, °C / CDC ([2]; 20 µM Ap4A) | Kd (ΔdhPPase [4]) | Kd [5]
1 | Nc1ncnc2c1ncn2[C@@H]1O[C@H](COP(=O)(O)O)[C@@H](O)[C@H]1O [AMP] | 68.6 °C | 66.5 °C | 67.4 °C | – | – | –
2 | Nc1ncnc2c1ncn2[C@@H]1O[C@H](COP(=O)(O)OP(=O)(O)OP(=O)(O)OP(=O)(O)OC[C@H]2O[C@@H](n3cnc4c(N)ncnc43)[C@H](O)[C@@H]2O)[C@@H](O)[C@H]1O [Ap4A] | – | – | – | 61.5 °C | < 10 nM | 10 to 100 nM
